Literature values as cited in US20220333169A1, “Polygenic Score for Cardiac Heart Failure” (Henry Ford Health System, priority 2019, published 2022).

Test system: heart failure patients
Conditions: one randomized clinical trial

COc1ccccc1OCCNCC(O)COc1cccc2[nH]c3ccccc3c12 (stereo not shown) [carvedilol]
95% confidence interval for change in left ventricular ejection fraction (LVEF): −11.1 to +32.9
